Laboratory results reported in paper PMC11139883, “Functional and structural dissection of glycosyltransferases underlying the glycodiversity of wolfberry-derived bioactive ingredients lycibarbarspermidines” (Nature Communications, 2024).

Assays:
Experiment in all cases: LC-MS product assay, Michaelis-Menten fit
Assay type in all cases: biochemical, Lycium barbarum
Details in all cases: 2.5 mM UDP-Glc, 1 mM MgCl2, 10 mM HEPES pH 7.0, 30 °C
LbUGT4 = tested on: T1, LbUGT4
T1 construct: full length; GST fusion (pGEX-2TK) from E. coli Rosetta (DE3)
Excerpt: LC-MS product assay, Michaelis-Menten fit on LbUGT4

LbUGT3 = tested on: T2, LbUGT3
T2 construct: full length (482 residues by printed domain borders); GST fusion (pGEX-2TK) from E. coli Rosetta (DE3) for assays; crystal protein with GST-His tag removed by TEV
Excerpt: LC-MS product assay, Michaelis-Menten fit on LbUGT3

LbUGT2 = tested on: T3, LbUGT2
T3 construct: full length; GST fusion (pGEX-2TK) from E. coli Rosetta (DE3)
Excerpt: LC-MS product assay, Michaelis-Menten fit on LbUGT2

[1] = substrate: O=C(/C=C/c1ccc(O)c(O)c1)NCCCNCCCCNC(=O)CCc1ccc(O)c(O)c1
Excerpt: LC-MS product assay, Michaelis-Menten fit on LbUGT1

| Km (LbUGT4) [µM] | Km (LbUGT3) [µM] | Km (LbUGT2) [µM] | Molecule | Km [1] [µM] | kcat [1] [s⁻¹] | kcat/Km [1] [M⁻¹ s⁻¹] |
| --- | --- | --- | --- | --- | --- | --- |
| 901 | 325 | 762 | O=C(/C=C/c1ccc(O)c(O)c1)NCCCNCCCCNC(=O)CCc1ccc(O)c(O)c1 [compound 1, N^1-caffeoyl-N^10-dihydrocaffeoylspermidine] | – | – | – |
| – | – | – | LbUGT1 (Lycium barbarum) (protein, full length (485 residues by printed domain borders); GST fusion (pGEX-2TK) from E. coli Rosetta (DE3) for assays; crystal protein with MBP-His tag removed by TEV) LTTKAELVFIPSPGAGHLISAIEIAKLILNRDERLCISVLIMKLPMDFGVQSYVASLSSSPRLQFVDITLDEKTVAGLLKNKESFFTDFIQGHKPKVKDFIHNTSFSKSGSGFSRLAGFVLDMFCTSMIDVASEFSVPSYIFLTSNAAFLALCYHFESLKKEHHIDTSKYKDSDEELTIPGFKNPYPGKFLPRLTTDQTTATTLFFDSVTRFKETKGIMVNTFAELEPFALQSLLVPKIYPVGPVVNFKEGGHGRNSESETESIIKWLDDQPESSVVFLCFGSMGSFDAEQIEEIAVALECSGHRFLWSLRRPPPKGKMELPSNYEDFQEVLPEGFIERTNGVGKVIGWAPQVAVLSHPAVGGFVSHCGWNSVLESLCFGVPIGAWPQYAEQQMNAFELVKQLGLAVEIRMDYFKDFEGKHGPVEIVTAKEIASGIRQLMADGEENEIRKRAKEMKEKSSAAMKEGGSSYASLGLLIEDVISNIS | 259.4 | 0.0057 | 22.1 |
